# According to ChEMBL document CHEMBL1201862, “PubChem BioAssay data set” (2004):
# “And” between values parts separate entries of the source, which are not always exact repeats. Equal entries are not always repeated.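 Compound exposure: 48 hours, 5 concentrations, 96-well plates. Here, GI50 denotes the concentration required for 50% inhibition of growth.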 The source made the active and inactive calls. Rule as the data show it: active = GI50 up to about 1.1 µM and inactive = higher. Starred links: 1 amine or outer side, 2 acyl side, 3 side chain; linkers in the order of their positions; H or OH if unused. Positions of bridges follow the written chain, without caps; N, C: chain ends. Non-standard residues stand in square brackets, D forms with d. Residues, ends and D or L forms follow the SMILES beside them. Chains are numbered I, II in the order given. Actinocin(9to1) = Cc1c2oc3c(C)ccc(C(=O)[*:1])c3nc-2c(C(=O)[*:2])c(N)c1=O; NMeT = CN[CH](C(=O)O)[CH](C)O; Sar = CNCC(=O)O
# How the values were obtained:
# Assay in all cases: NCI anticancer screen, dose series, 48 h
# SF-295 = system: SF-295
# HOP-92 = system: HOP-92
# CAKI-1 = system: CAKI-1
# PC-3 = system: PC-3
# NCI-H226 = system: NCI-H226
# SNB-19 = system: SNB-19
# LOX IMVI = system: LOX IMVI
# SK-MEL-28 = system: SK-MEL-28
# NCI/ADR-RES = system: NCI/ADR-RES
# SF-268 = system: SF-268
# A549 = system: A549
# MDA-MB-231 = system: MDA-MB-231
# SF-539 = system: SF-539
# NCI-H460 = system: NCI-H460
# EKVX = system: EKVX
# COLO 205 = system: COLO 205
# HL-60 = system: HL-60
# NCI-H23 = system: NCI-H23
# SK-MEL-5 = system: SK-MEL-5
# SW-620 = system: SW-620
# SK-OV-3 = system: SK-OV-3
# K562 = system: K562
# MDA-MB-435 = system: MDA-MB-435
# OVCAR-8 = system: OVCAR-8
# ACHN = system: ACHN
# DU-145 = system: DU-145
# HCC 2998 = system: HCC 2998
# A498 = system: A498
# 786-0 = system: 786-0
# TK-10 = system: TK-10
# HOP-62 = system: HOP-62
# MDA-N = system: MDA-N
# UO-31 = system: UO-31
# IGROV-1 = system: IGROV-1
# Malme-3M = system: Malme-3M
# OVCAR-4 = system: OVCAR-4
# SNB-75 = system: SNB-75
# UACC-62 = system: UACC-62
# HT-29 = system: HT-29
# SR = system: SR
# RPMI-8226 = system: RPMI-8226
# MOLT-4 = system: MOLT-4
# KM12 = system: KM12
# HCT-116 = system: HCT-116
# Hs-578T = system: Hs-578T
# CCRF-CEM = system: CCRF-CEM
# M14 = system: M14
# NCI-H522 = system: NCI-H522
# RXF 393 = system: RXF 393
# UACC-257 = system: UACC-257
# SN12C = system: SN12C
# OVCAR-3 = system: OVCAR-3
# OVCAR-5 = system: OVCAR-5
# HCT-15 = system: HCT-15
# T47D = system: T47D
# SK-MEL-2 = system: SK-MEL-2
# MCF7 = system: MCF7
# U-251 = system: U-251
structure (smiles),measurement,setting,value
COC(=O)CC(SCCO)SCCO,GI50,SF-295,> 100 µM (inactive)
same,GI50,HOP-92,> 100 µM (inactive)
same,GI50,CAKI-1,> 100 µM (inactive)
same,GI50,PC-3,> 100 µM (inactive)
same,GI50,NCI-H226,> 100 µM (inactive)
same,GI50,SNB-19,> 100 µM (inactive)
same,GI50,LOX IMVI,> 100 µM (inactive)
same,GI50,SK-MEL-28,> 100 µM (inactive)
same,GI50,NCI/ADR-RES,> 100 µM (inactive)
same,GI50,SF-268,> 100 µM (inactive)
same,GI50,A549,> 100 µM (inactive)
same,GI50,MDA-MB-231,> 100 µM (inactive)
same,GI50,SF-539,> 100 µM (inactive)
same,GI50,NCI-H460,70.3 µM (inactive)
same,GI50,EKVX,> 100 µM (inactive)
same,GI50,COLO 205,> 100 µM (inactive)
same,GI50,HL-60,> 100 µM (inactive)
same,GI50,NCI-H23,> 100 µM (inactive)
same,GI50,SK-MEL-5,> 100 µM (inactive)
same,GI50,SW-620,> 100 µM (inactive)
same,GI50,SK-OV-3,> 100 µM (inactive)
same,GI50,K562,> 100 µM (inactive)
same,GI50,MDA-MB-435,> 100 µM (inactive)
same,GI50,OVCAR-8,> 100 µM (inactive)
same,GI50,ACHN,> 100 µM (inactive)
same,GI50,DU-145,> 100 µM (inactive)
same,GI50,HCC 2998,> 100 µM (inactive)
same,GI50,A498,> 100 µM (inactive)
same,GI50,786-0,> 100 µM (inactive)
same,GI50,TK-10,> 100 µM (inactive)
same,GI50,HOP-62,> 100 µM (inactive)
same,GI50,MDA-N,> 100 µM (inactive)
same,GI50,UO-31,> 100 µM (inactive)
same,GI50,IGROV-1,> 100 µM (inactive)
same,GI50,Malme-3M,> 100 µM (inactive)
same,GI50,OVCAR-4,> 100 µM (inactive)
same,GI50,SNB-75,75.7 µM (inactive)
same,GI50,UACC-62,> 100 µM (inactive)
same,GI50,HT-29,> 100 µM (inactive)
same,GI50,SR,> 100 µM (inactive)
same,GI50,RPMI-8226,> 100 µM (inactive)
same,GI50,MOLT-4,> 100 µM (inactive)
same,GI50,KM12,> 100 µM (inactive)
same,GI50,HCT-116,> 100 µM (inactive)
same,GI50,Hs-578T,> 100 µM (inactive)
same,GI50,CCRF-CEM,> 100 µM (inactive)
same,GI50,M14,> 100 µM (inactive)
same,GI50,NCI-H522,> 100 µM (inactive)
same,GI50,RXF 393,> 100 µM (inactive)
same,GI50,UACC-257,> 100 µM (inactive)
same,GI50,SN12C,> 100 µM (inactive)
same,GI50,OVCAR-3,> 100 µM (inactive)
same,GI50,OVCAR-5,> 100 µM (inactive)
CC1(C)O[C@H]2OC(CO)C(OS(C)(=O)=O)[C@H]2O1 (some centres not stated),GI50,SF-295,> 100 µM (inactive)
same,GI50,HCT-15,> 100 µM
same,GI50,HOP-92,> 100 µM (inactive)
same,GI50,CAKI-1,> 100 µM (inactive)
same,GI50,PC-3,> 100 µM (inactive)
same,GI50,T47D,> 100 µM (inactive)
same,GI50,SNB-19,> 100 µM (inactive)
same,GI50,SK-MEL-2,> 100 µM (inactive)
same,GI50,LOX IMVI,> 100 µM (inactive)
same,GI50,SK-MEL-28,> 100 µM (inactive)
same,GI50,NCI/ADR-RES,> 100 µM (inactive)
same,GI50,SF-268,> 100 µM (inactive)
same,GI50,A549,> 100 µM (inactive)
same,GI50,MCF7,> 100 µM (inactive)
same,GI50,MDA-MB-231,> 100 µM (inactive)
same,GI50,SF-539,> 100 µM (inactive)
same,GI50,NCI-H460,> 100 µM (inactive)
same,GI50,EKVX,> 100 µM (inactive)
same,GI50,COLO 205,> 100 µM (inactive)
same,GI50,HL-60,> 100 µM (inactive)
same,GI50,NCI-H23,> 100 µM (inactive)
same,GI50,SK-MEL-5,> 100 µM (inactive)
same,GI50,SW-620,> 100 µM (inactive)
same,GI50,MDA-MB-435,> 100 µM (inactive)
same,GI50,OVCAR-8,> 100 µM (inactive)
same,GI50,ACHN,> 100 µM (inactive)
same,GI50,DU-145,> 100 µM (inactive)
same,GI50,HCC 2998,> 100 µM (inactive)
same,GI50,A498,> 100 µM (inactive)
same,GI50,786-0,> 100 µM (inactive)
same,GI50,TK-10,> 100 µM (inactive)
same,GI50,HOP-62,> 100 µM (inactive)
same,GI50,MDA-N,> 100 µM (inactive)
same,GI50,UO-31,> 100 µM (inactive)
same,GI50,U-251,> 100 µM (inactive)
same,GI50,IGROV-1,> 100 µM (inactive)
same,GI50,Malme-3M,> 100 µM (inactive)
same,GI50,OVCAR-4,> 10 µM (inactive)
same,GI50,SNB-75,> 100 µM (inactive)
same,GI50,UACC-62,> 100 µM (inactive)
same,GI50,HT-29,> 100 µM (inactive)
same,GI50,RPMI-8226,> 100 µM (inactive)
same,GI50,KM12,> 100 µM (inactive)
same,GI50,HCT-116,> 100 µM (inactive)
same,GI50,Hs-578T,> 100 µM (inactive)
same,GI50,CCRF-CEM,> 100 µM (inactive)
same,GI50,M14,> 100 µM (inactive)
same,GI50,NCI-H522,48.1 µM (inactive)
same,GI50,UACC-257,> 100 µM (inactive)
same,GI50,SN12C,> 100 µM (inactive)
same,GI50,OVCAR-3,> 100 µM (inactive)
same,GI50,OVCAR-5,> 100 µM (inactive)
"Cc1c2oc3c(C)ccc(C(=O)NC4C(=O)NC(C(C)C)C(=O)N5CCCC5C(=O)N(C)CC(=O)N(C)C(C(C)O)C(=O)OC4C)c3nc-2c(C(=O)NC2C(=O)NC(C(C)C)C(=O)N3CCCC3C(=O)N(C)CC(=O)N(C)C(C(C)O)C(=O)OC2C)c(N)c1=O (configuration not stated) (I: TVP[Sar][NMeT] / II: TVP[Sar][NMeT]; ester I:1-I:C, II:1-II:C; linker I:N-II:N via Actinocin(9to1); configuration not given here)",GI50,HOP-92,> 1 µM (active) and 1.9 µM (inactive)
same,GI50,SK-MEL-2,0.719 µM (active)
same,GI50,LOX IMVI,565 nM (active) and 557 nM (active)
same,GI50,SK-MEL-28,583 nM (active) and 769 nM (active)
same,GI50,SF-268,> 1 µM (active) and 1.63 µM (inactive)
same,GI50,MCF7,445 nM (active) and 671 nM (active)
same,GI50,SF-539,518 nM (active) and 533 nM (active)
same,GI50,NCI-H460,470 nM (active) and 401 nM (active)
same,GI50,NCI-H23,> 1 µM (active) and 1.41 µM (inactive)
same,GI50,SW-620,> 1 µM (active) and 834 nM (active)
same,GI50,K562,0.586 µM (active)
same,GI50,OVCAR-8,1.1 µM (active)
same,GI50,ACHN,1.69 µM (inactive)
same,GI50,HOP-62,1.18 µM (inactive) and 792 nM (active)
same,GI50,MDA-N,1.68 µM (inactive)
same,GI50,U-251,495 nM (active) and 369 nM (active)
same,GI50,IGROV-1,512 nM (active) and 914 nM (active)
same,GI50,SNB-75,313 nM (active) and 186 nM (active)
same,GI50,UACC-62,0.478 µM (active)
same,GI50,RPMI-8226,0.773 µM (active)
same,GI50,MOLT-4,> 1 µM (active) and 875 nM (active)
same,GI50,HCT-116,556 nM (active) and 472 nM (active)
same,GI50,Hs-578T,1.46 µM (inactive)
same,GI50,CCRF-CEM,1.59 µM (inactive) and 957 nM (active)
same,GI50,NCI-H522,173 nM (active) and 255 nM (active)
same,GI50,RXF 393,453 nM (active) and 820 nM (active)
same,GI50,SN12C,> 1 µM (active) and 1.26 µM (inactive)
